Reference: patent publication US20090291964A1, “Potentiators of Antibacterial Activity” (priority 2003, published 2009)
Read-outs that look alike come from different tables or passages of the source.

Columns and labels:
Type in all cases: cell-based
E. faecalis ATCC 29212 = test: MIC by NCCLS microdilution, EtBr/EPI with and without EPI; conditions: E. faecalis ATCC 29212; for MIC: Enterococcus faecalis, ATCC29212
Experimental: (§1) 3% sterile laked horse blood (Quad Five, Ryegate, Mont.) was added to assays for E. faecalis and S. Pneumoniae. A final concentration of 1% DMSO was present in all assays.
(§2) EtBr is a general substrate for many different efflux pumps in bacteria. Markham et al., “Multiple Novel Inhibitors of the NorA Multidrug Transporter of Staphylococcus aureus”, Antimicrob. Agents Chemother. 43:2404-2408 (1999). Since EtBr is a non-specific DNA intercalator, the only known mechanism of resistance to EtBr is via efflux. Markham et al., “Multiple Novel Inhibitors of the NorA Multidrug Transporter of Staphylococcus aureus”, Antimicrob. Agents Chemother. 43:2404-2408 (1999).

S. pneumoniae ATCC 10015 = test: as above; conditions: for MIC: Streptococcus pneumoniae, ATCC10015
Experimental: as §1, §2

S. aureus K2068 = test: Minimal effective concentration (MEC) of EPI for gatifloxacin; conditions: S. aureus K2068 (nonNorA pump overproducer); lowest amount of EPI which produces the maximum effect on the MIC of gatifloxacin
Experimental: (§3) The MEC was determined as the minimal concentration of EPI that produced the maximal reduction in substrate MIC.
(§4) Since any given compound may be recognized by an unknown number of efflux pumps in a particular organism, we reasoned that the MEC of A-106 and C-9 should vary for different antibiotics. Also, the MEC of A-106 and C-9 should vary with the degree of efflux expression in a given strain. […] This was confirmed with two other wild type strains, SA-8325-4 and SA-1199 (Table 3).
(§5) The MEC of A-106 and C-9 for gatifloxacin was determined in these efflux mutants. […] A similar result was obtained with efflux mutant K2068, where the MEC for A-106 was 6.25 μg/ml and the MEC for C-9 was 3.1 μg/ml. […] This may reflect that either gatifloxacin is recognized by fewer pumps than EtBr or it is a poorer efflux substrate in general. This is consistent with the finding that the activity of A-106 was non-saturable for EtBr but is saturable for gatifloxacin.

S. aureus SA-1199B = test: as above; conditions: S. aureus SA-1199B (NorA overproducer); lowest amount of EPI which produces the maximum effect on the MIC of gatifloxacin
Experimental: as §3, §4, §5

S. aureus ATCC 29213 = test: MIC by NCCLS microdilution, antibacterial agents with and without EPI; conditions: for MIC: Staphylococcus aureus, ATCC29213, S. aureus ATCC 29213
Procedure, shortened: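 Efflux pump inhibitors were combined at fixed concentrations with antibiotics from several classes and tested against Staphylococcus aureus ATCC 29213 to compare minimum inhibitory concentrations with and without inhibitor. The inhibitor level was tied to its minimal effective concentration for ethidium bromide, a general efflux pump substrate. All assays contained a final concentration of 1% DMSO.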

[1] = test system: S. aureus SA-1199B (NorA overproducing); test: MIC of fluoroquinolones with and without EPI
Procedure, shortened: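 Fluoroquinolone MICs determined with and without efflux pump inhibitor in S. aureus SA-1199B (NorA overproducer with A116E GrlA mutation) and SA-K2068 (SA-8325-4 with a non-NorA multidrug efflux pump overproducing mutation). All assays contained 1% DMSO final.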

[2] = test system: S. aureus SA-1199 (clinical isolate, susceptible); test: MIC of fluoroquinolones with and without EPI; conditions: S. aureus SA-1199, EPI at 4X the MEC for EtBr, VX-710 at 100 μg/ml
Procedure, shortened: (§6)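 Fluoroquinolone MICs determined with and without efflux pump inhibitor; all assays contained 1% DMSO final. SA-8325-4 is NCTC 8325 cured of prophages; SA-1199 is a susceptible clinical isolate.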

S. aureus SA-8325-4 = test: MIC of fluoroquinolones with and without EPI; conditions: S. aureus SA-8325-4, EPI at 4X the MEC for EtBr, VX-710 at 100 μg/ml
Procedure, shortened: as §6

[3] = EPI alone, read-out: MIC of EPI
[4] = EPIs used at the MEC, except VX-710 at 100 μg/ml, read-out: MIC of EtBr with EPI
[5] = S. aureus ATCC 29213, EPI at 4X the MEC for EtBr, VX-710 at 100 μg/ml
[6] = S. aureus SA-1199B, EPI at 4X the MEC for EtBr, VX-710 at 100 μg/ml
[7] = Staphylococcus aureus, read-out: MIC of EtBr with EPI

COC(=O)[C@H]1[C@H]2C[C@@H]3c4[nH]c5cc(OC)ccc5c4CCN3C[C@H]2C[C@@H](OC(=O)c2cc(OC)c(OC)c(OC)c2)[C@@H]1OC [reserpine, reference compound]
Fold-reduction in EtBr MIC (E. faecalis ATCC 29212; EPIs used at the MEC, except VX-710 at 100 μg/ml): 8
MIC (E. faecalis ATCC 29212; [3]): > 100 µg/mL
MIC (E. faecalis ATCC 29212; [4]): 0.8 µg/mL
Fold-reduction in EtBr MIC (S. pneumoniae ATCC 10015; S. pneumoniae ATCC 10015, EPIs used at the MEC, except VX-710 at 100 μg/ml): 50
reduction in the MIC of EtBr (S. pneumoniae ATCC 10015; S. pneumoniae, reserpine 25 μg/ml (maximal subinhibitory concentration)): 50 fold
MIC (S. pneumoniae ATCC 10015; S. pneumoniae ATCC 10015, EPI alone, read-out: MIC of EPI): 50 µg/mL
MIC (S. pneumoniae ATCC 10015; S. pneumoniae ATCC 10015, EPIs used at the MEC, except VX-710 at 100 μg/ml, read-out: MIC of EtBr with EPI): 0.04 µg/mL
MIC (S. pneumoniae ATCC 10015; S. pneumoniae, read-out: MIC of EPI alone): 50 µg/mL
MEC (S. aureus K2068): 3.1 µg/mL
MEC (S. aureus SA-1199B): 25 µg/mL
MIC of gatifloxacin with EPI (S. aureus ATCC 29213; S. aureus ATCC 29213 (Table 4)): 0.125 µg/mL
MIC of ciprofloxacin with EPI (S. aureus ATCC 29213; [5]): 0.063 µg/mL
MIC of gatifloxacin with EPI (S. aureus ATCC 29213; [5]): 0.063 µg/mL
MIC of gentamicin with EPI (S. aureus ATCC 29213; [5]): 0.125 µg/mL
MIC of levofloxacin with EPI (S. aureus ATCC 29213; [5]): 0.125 µg/mL
MIC of norfloxacin with EPI (S. aureus ATCC 29213; [5]): 0.25 µg/mL
Fold-reduction in EtBr MIC (S. aureus ATCC 29213; S. aureus ATCC 29213, EPIs used at the MEC, except VX-710 at 100 μg/ml): 4
MIC (S. aureus ATCC 29213; [3]): > 100 µg/mL
MIC (S. aureus ATCC 29213; EPI at 4X the MEC for EtBr, VX-710 at 100 μg/ml, read-out: MIC of EtBr with EPI): 0.4 µg/mL
MIC (S. aureus ATCC 29213; [4]): 1.6 µg/mL
Fold-reduction in MIC (S. aureus ATCC 29213; gatifloxacin, S. aureus ATCC 29213): 1
MIC of gatifloxacin with EPI ([1]; S. aureus SA-1199B (NorA overproducer) (Table 4)): 0.25 µg/mL
MIC of ciprofloxacin with EPI [1, 6]: 0.5 µg/mL
MIC of gatifloxacin with EPI [1, 6]: 0.125 µg/mL
MIC of gentamicin with EPI [1, 6]: 0.125 µg/mL
MIC of levofloxacin with EPI [1, 6]: 0.5 µg/mL
MIC of norfloxacin with EPI [1, 6]: 4 µg/mL
MIC [1, 7]: 0.8 µg/mL
Fold-reduction in MIC ([1]; gatifloxacin, S. aureus SA-1199B (NorA overproducer)): 2
MIC of ciprofloxacin with EPI [2]: 0.063 µg/mL
MIC of gatifloxacin with EPI [2]: 0.063 µg/mL
MIC of gentamicin with EPI [2]: 0.125 µg/mL
MIC of levofloxacin with EPI [2]: 0.125 µg/mL
MIC of norfloxacin with EPI [2]: 0.125 µg/mL
MIC [2, 7]: 0.4 µg/mL
MIC of ciprofloxacin with EPI (S. aureus SA-8325-4): 0.125 µg/mL
MIC of gatifloxacin with EPI (S. aureus SA-8325-4): 0.125 µg/mL
MIC of gentamicin with EPI (S. aureus SA-8325-4): 0.063 µg/mL
MIC of levofloxacin with EPI (S. aureus SA-8325-4): 0.25 µg/mL
MIC of norfloxacin with EPI (S. aureus SA-8325-4): 0.25 µg/mL
MIC (S. aureus SA-8325-4; Staphylococcus aureus, SA83254, read-out: MIC of EtBr with EPI): 0.4 µg/mL
